Experimental data reported in patent publication EP4640240A1, “PEPTIDE-BASED RADIOPHARMACEUTICALS FOR NON-INVASIVE IMAGING OF THE FUNCTIONAL LIVER RESERVE” (Medizinische Universität Innsbruck, priority 2024, dated 2025).
Read-outs that look alike come from different tables or passages of the source.

What was measured:
[1] = Partition coefficient logD (n-octanol/PBS); format: physicochemical; conditions: n=6
Procedure: For determination of logarithmic partition coefficients (logD) n-Octanol (500 µL) and PBS (500 µL) were pipetted into eight 1.5 mL Protein Low-Bind Eppendorf tubes followed by addition of 300 kBq of labelled compound. The vials were vortexed for 5 min at 1,500 1/min and then centrifuged for 5 min at 20,000 rcf (Eppendorf Centrifuge 5424). Aliquots of 100 µL were taken out of each phase and the amount of activity was quantified in a γ-counter (Perkin Elmer 2480 Wizard2 3"; Waltham, Massachusetts, USA).

[2] = Biodistribution studies in BALB/c mice; format: in vivo; conditions: for tissue uptake at 10 min / tissue uptake at 0.5 h / tissue uptake at 1 h: female, mouse, iv, total radioactivity, healthy BALB/c mice, 0.1 nmol i.v.; for tissue uptake at 10 min: 10 min p.i.; for tissue uptake at 0.5 h: 30 min p.i.; for tissue uptake at 1 h: 60 min p.i.
Procedure: For biodistribution studies 6-week-old female BALB/c mice (n=3) were injected with 0.1 nmol (100 µL, approx. 1 MBq) of labelled compound via the lateral tail vein and sacrificed after 10, 30, or 60 min by cervical dislocation. The mice were dissected, blood and organs (spleen, pancreas, stomach, intestine, liver, kidney, heart, lung, muscle and bone) were weighed and their activity measured in a γ-counter. For blocking experiments, mice were co-injected with 27.7 µmοl N-acetylgalactose.

[3] = Protein binding in human serum (MicroSpin G-50 columns); format: in vitro ADME; conditions: fresh human serum, 37 °C, n=3
Procedure: Protein binding was determined for different time points (2 min, 30 min, 60 min, 120 min) in triplicates using Sephadex MicroSpin G-50 columns (GE-Healthcare, Chicago, Illinois, USA). The columns were spun initially at 20,000 rcf for 1 min to remove the storage buffer. Then approx. 5 MBq of radioligand was added to 1 mL of fresh human serum and incubated at 37 °C. At each given timepoint 25 µL of the mixture was loaded on to the column, which was then spun at 20,000 rcf for 1 min. The activity content on the column (free radioligand) and in the filtrate (protein bound fraction) was quantified in a γ-counter.

[4] = Stability in human blood serum (radio-HPLC); format: in vitro ADME; conditions: 37 °C
Procedure: Ligand stability in human blood serum (n = 2) and PBS (pH = 6.5) (n = 1) was determined for different time points (2 min, 30 min, 60 min, 120 min). Therefore, approx. 5 MBq of radioligand was added to 1 mL of fresh human serum at 37 °C or PBS at rt. At each given time point 100 µL of the mixture were transferred to a 1.5 mL Eppendorf tube containing 100 µL of acetonitrile. The vial was vortexed and centrifuged for 2 min at 14,000 1/min before 100 µL of the supernatant were diluted with 200 µL of water and injected into analytical radio-HPLC. The PBS solution was directly injected into the radio-HPLC. Ligand stability was determined by integrating the areas of the signals in the radio chromatogram in relation to the signal of the intact ligand.

[5] = BALB/c mice, comparison with ^99mTc-GSA
[6] = Blood, read-out: Biodistribution data, Blood
[7] = Femur, read-out: Biodistribution data, Femur
[8] = Heart, read-out: Biodistribution data, Heart
[9] = Intestine, read-out: Biodistribution data, Intestine
[10] = Kidneys, read-out: Biodistribution data, Kidneys
[11] = Liver, read-out: Biodistribution data, Liver
[12] = Lung, read-out: Biodistribution data, Lung
[13] = Muscle, read-out: Biodistribution data, Muscle
[14] = Pancreas, read-out: Biodistribution data, Pancreas
[15] = Spleen, read-out: Biodistribution data, Spleen
[16] = Stomach, read-out: Biodistribution data, Stomach

For NC(=O)CNC(=O)CNC(=O)[C@H](CCCCNC(=O)CCCCc1cn(C2O[C@H](CO)[C@H](O)[C@H](O)[C@H]2O)nn1)NC(=O)CNC(=O)CNC(=O)[C@H](CCCCNC(=O)CCCCc1cn(C2O[C@H](CO)[C@H](O)[C@H](O)[C@H]2O)nn1)NC(=O)CNC(=O)CNC(=O)[C@H](CCCCNC(=O)CCCCc1cn(C2O[C@H](CO)[C@H](O)[C@H](O)[C@H]2O)nn1)NC(=O)CNC(=O)CNC(=O)[C@H](CCCCNC(=O)CCCCc1cn(C2O[C@H](CO)[C@H](O)[C@H](O)[C@H]2O)nn1)NC(=O)CNC(=O)CNC(=O)[C@H](CCCCNC(=O)CCCCc1cn(C2O[C@H](CO)[C@H](O)[C@H](O)[C@H]2O)nn1)NC(=O)CNC(=O)CNC(=O)[C@H](CCCCNC(=O)CCCCc1cn(C2O[C@H](CO)[C@H](O)[C@H](O)[C@H]2O)nn1)NC(=O)CNC(=O)CNC(=O)[C@H](CCCCNC(=O)CCCCc1cn(C2O[C@H](CO)[C@H](O)[C@H](O)[C@H]2O)nn1)NC(=O)CNC(=O)CNC(=O)[C@H](CCCCNC(=O)CCCCc1cn(C2O[C@H](CO)[C@H](O)[C@H](O)[C@H]2O)nn1)NC(=O)CNC(=O)CNC(=O)[C@H](CCCCNC(=O)CCCCc1cn(C2O[C@H](CO)[C@H](O)[C@H](O)[C@H]2O)nn1)NC(=O)CCCNC(=O)CC[C@H](C(=O)O)N1CCN(CC(=O)O)CCN(CC(=O)O)CC1 (some centres unmarked) [[68Ga]Ga-NonaLysan, metal not drawn], the logD [1] was -4.06 ± 0.09, the “activity accumulation in the liver (in words)” value [2, 5] was “outperforms the accumulation in the liver found for the gold standard ^99mTc-GSA” and the “activity concentration in the intestine (in words)” value [2, 5] was “activity concentration is lower as found for ^99mTc-GSA”. The tissue uptake at 10 min [2, 6] was 0.43 ± 0.03 %ID/g, the tissue uptake at 0.5 h [2, 6] was 0.15 ± 0.04 %ID/g and the tissue uptake at 1 h [2, 6] was 0.22 ± 0.05 %ID/g. The tissue uptake at 10 min [2, 7] was 0.26 ± 0.02 %ID/g, the tissue uptake at 0.5 h [2, 7] was 0.26 ± 0.08 %ID/g and the tissue uptake at 1 h [2, 7] was 0.23 ± 0.01 %ID/g. For the same molecule, the tissue uptake at 10 min [2, 8] was 0.44 ± 0.04 %ID/g, the tissue uptake at 0.5 h [2, 8] was 0.44 ± 0.04 %ID/g and the tissue uptake at 1 h [2, 8] was 0.52 ± 0.07 %ID/g. The tissue uptake at 10 min [2, 9] was 0.77 ± 0.17 %ID/g, the tissue uptake at 0.5 h [2, 9] was 5.61 ± 0.22 %ID/g and the tissue uptake at 1 h [2, 9] was 7.91 ± 0.49 %ID/g. The tissue uptake at 10 min [2, 10] was 1.16 ± 0.12 %ID/g, the tissue uptake at 0.5 h [2, 10] was 0.83 ± 0.03 %ID/g and the tissue uptake at 1 h [2, 10] was 0.99 ± 0.15 %ID/g. For the same molecule, the tissue uptake at 10 min [2, 11] was 71.23 ± 0.43 %ID/g, the tissue uptake at 0.5 h [2, 11] was 79.6 ± 7.96 %ID/g and the tissue uptake at 1 h [2, 11] was 69.6 ± 0.98 %ID/g. For the same molecule, the tissue uptake at 10 min [2, 12] was 0.85 ± 0.1 %ID/g, the tissue uptake at 0.5 h [2, 12] was 0.7 ± 0.08 %ID/g and the tissue uptake at 1 h [2, 12] was 0.92 ± 0.1 %ID/g. The tissue uptake at 10 min [2, 13] was 0.61 ± 0.07 %ID/g, the tissue uptake at 0.5 h [2, 13] was 0.66 ± 0.03 %ID/g and the tissue uptake at 1 h [2, 13] was 0.59 ± 0.09 %ID/g. It also gave a tissue uptake at 10 min [2, 14] of 0.75 ± 0.07 %ID/g, a tissue uptake at 0.5 h [2, 14] of 0.91 ± 0.05 %ID/g and a tissue uptake at 1 h [2, 14] of 1.16 ± 0.19 %ID/g. The tissue uptake at 10 min [2, 15] was 0.57 ± 0.16 %ID/g, the tissue uptake at 0.5 h [2, 15] was 0.17 ± 0.03 %ID/g and the tissue uptake at 1 h [2, 15] was 0.49 ± 0.03 %ID/g. It also gave a tissue uptake at 10 min [2, 16] of 0.73 ± 0.16 %ID/g, a tissue uptake at 0.5 h [2, 16] of 1.15 ± 0.44 %ID/g and a tissue uptake at 1 h [2, 16] of 1.78 ± 0.98 %ID/g. For the same molecule, the fraction unbound ([3]; 2 min) was 0.847, the fraction unbound ([3]; 30 min) was 0.717 and the fraction unbound ([3]; 60 min) was 0.737. For the same molecule, the fraction unbound ([3]; 120 min) was 0.785, the remaining at 2 min ([4]; 2 min, n=2, read-out: Serum stability (% of intact ligand)) was 99.5 ± 0.1% and the remaining at 0.5 h ([4]; 30 min, n=2, read-out: Serum stability (% of intact ligand)) was 99.5 ± 0.1%. For the same molecule, the “Serum stability (% of intact ligand)” value ([4]; 60 min, n=2) was 99.5 ± 0.1% and the remaining at 2 h ([4]; 120 min, n=2, read-out: Serum stability (% of intact ligand)) was 99.6%.
